Measured values from patent US9981970B2, “Bicyclic ureas and thiadiazolidine-1, 1-dioxides as CETP inhibitors” (Merck Sharp & Dohme Corp., priority 2013, dated 2018).

The compounds below were run against T1, endogenous CETP from serum (Homo sapiens, UniProt P11597) (assay: RTA assay in 95% human serum (in vitro radioactive assay of CETP-catalyzed CE and TG transfer)). Conditions: RTA assay in 95% human serum, endogenous CETP; read-out: RTA (95% HS).
T1 construct: yielding a concentration of approximately 15 nM endogenous CETP in the assay; from tissue; host or cells: human serum
T1 sequence (P11597 18-493): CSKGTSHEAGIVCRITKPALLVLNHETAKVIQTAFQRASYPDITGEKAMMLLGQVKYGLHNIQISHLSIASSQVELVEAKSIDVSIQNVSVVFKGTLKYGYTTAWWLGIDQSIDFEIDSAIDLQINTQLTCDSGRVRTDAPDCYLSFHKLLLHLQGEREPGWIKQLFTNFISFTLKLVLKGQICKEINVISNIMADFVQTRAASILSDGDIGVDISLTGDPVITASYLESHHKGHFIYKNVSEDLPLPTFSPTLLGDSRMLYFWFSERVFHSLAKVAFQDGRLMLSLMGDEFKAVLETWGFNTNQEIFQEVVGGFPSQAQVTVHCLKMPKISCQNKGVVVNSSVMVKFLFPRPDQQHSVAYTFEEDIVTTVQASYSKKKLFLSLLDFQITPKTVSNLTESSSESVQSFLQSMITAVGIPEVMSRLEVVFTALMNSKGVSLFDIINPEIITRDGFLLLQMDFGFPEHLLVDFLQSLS
Assay type: biochemical
Text: In Vitro Radioactive Assays of CETP-Catalyzed CE and TG Transfer (RTA Assay)
Reagents and sources are: [3H] cholesteryl oleate (GE #TRK.886), [3H] Triolein (Perkin-Elmer NET-431), Butylated hydroxyl toluene (Aldrich, #D4740-4), DOPC (Sigma, # P6354), Sodium Bromide (Fisher scientific #S255-500), PEG 8000 (Fisher, #BP233-1), and human HDL (Intracel Corp #RP-036).
Both assays measure the transfer of [3H] cholesteryl oleate or [3H] triolein from exogenous LDL to HDL.
Radiolabeled donor particles are generated by first combining 100 μl of 200 μM butylated hydroxyl toluene in CHCl3, 216 μL of 21.57 mM DOPC in EtOH, and either 500 μCi [3H]-triolein (Perkin Elmer #NET-431) or 500 μCi [3H]-cholesteryl oleate (GE #TRK886) in a glass tube. Reagents are mixed, dried under nitrogen, and then resuspended in 2 mL of 50 mM Tris, 27 μM EDTA at pH 7.4. After a brief vortex, the solution is sonicated until clear and mixed with 20 mL of fresh human serum. The mixture is incubated overnight at 37° C. The [3H] labeled LDL substrate is separated at 1.063 g/ml density by sequential ultracentrifugal flotation in NaBr according to the method of Havel, Eder, et al., 1955, and Chapman, Goldstein, et al., 1981. Once isolated the particles are dialyzed 3× in CETP buffer (50 mM Tris, pH 7.4, 100 mM NaCl, 1 mM EDTA). Human HDL is purchased from Intracel and used as the acceptor particles.
Transfer assays are performed in a 96-well v-bottom polypropylene plate. For the RTA using recombinant CETP (2% RTA), an assay cocktail is prepared with the final concentrations 128 μg/mL HDL, 20 nM rCETP, 2% human serum, and 1×CETP buffer. 1 μL of each test compound diluted in DMSO is added to 47 μL of assay cocktail per well and incubated at 37° C. for 1 hour. To initiate the transfer reaction, 2 μL radiolabeled LDL is added. After an additional 60 min of incubation at 37° C., the transfer action is terminated by precipitation of LDL with an equal volume of 20% WN PEG 8000. The plates are centrifuged at 2000 rpm for 30 minutes at 4° C. A 40 μL aliquot of the HDL-containing supernatant is transferred to a Packard Optiplate™ with 200 μL of MicroScint™ 20. After mixing, plates are counted by liquid scintillation. Counts present in the supernatant for blanks (wells containing only HDL acceptor, CETP buffer and DMSO) are subtracted from those containing test compounds and used to correct for non-specific transfer.
This is then combined with HDL and CETP buffer and the reaction proceeds as above and is terminated as described.
Comparison of the counts of samples with inhibitors to an uninhibited (DMSO only) positive control yield a percent inhibition. A plot of percent inhibition vs. log of inhibitor concentration, fit to a Sigmoidal 4 parameter equation is used to calculate IC50.
Starting materials are commercially available or are made using known procedures or as shown below. The examples may be synthesized according to the general schemes provided below and by using the synthetic intermediates that are described. […] When compounds of Formula I are mentioned herein, such compounds include compounds defined generically by Formula I and also the specific examples disclosed herein.
In the case of COc1ncc(-c2ccc(C(=O)O)cc2C)cc1-c1ccc(C(F)(F)F)cc1[C@@H]1CC[C@H]2[C@@H](c3cc(C(F)(F)F)cc(C(F)(F)F)c3)NC(=O)N12 [Example 1, 4-(5-(2-((1R,5 S,7aS)-1-(3,5-bis(trifluoromethyl)phenyl)-3-oxohexahydro-1H-pyrrolo[1,2-c]imidazol-5-yl)-4-(trifluoromethyl)phenyl)-6-methoxypyridin-3-yl)-3-methylbenzoic acid], the IC50 is reported as 0.335 µM. Work on COc1ncc(-c2ccc(C(=O)NC3(C#N)CC3)cc2C)cc1-c1ccc(C(F)(F)F)cc1[C@@H]1CC[C@H]2[C@@H](c3cc(C(F)(F)F)cc(C(F)(F)F)c3)NC(=O)N12 [Example 2, 4-{5-[2-{(1R,5S,7aS)-1-[3,5-bis(trifluoromethyl)phenyl]-3-oxohexahydro-1H-pyrrolo[1,2-c]imidazol-5-yl}-4-(trifluoromethyl)phenyl]-6-methoxypyridin-3-yl}-N-(1-cyanocyclopropyl)-3-methylbenzamide] yielded an IC50 of 0.276 µM. In the case of COc1ccc(C2CCC(C(=O)O)CC2)cc1-c1ccc(C(F)(F)F)cc1[C@@H]1CC[C@H]2[C@@H](c3cc(C(F)(F)F)cc(C(F)(F)F)c3)NC(=O)N12 (stereo partly drawn) [Example 3, 4-(2′-((1R,5 S,7aS)-1-(3,5-bis(trifluoromethyl)phenyl)-3-oxohexahydro-1H-pyrrolo[1,2-c]imidazol-5-yl)-6-methoxy-4′-(trifluoromethyl)-[1,1′-biphenyl]-3-yl)cyclohexanecarboxylic acid], the IC50 is reported as 1.73 µM.

Same assay, conditions: Table 1; data generally obtained using the RTA assay in 95% human serum; read-out: IC50
With COc1ncc(-c2ccc(C(=O)O)cc2C)cc1-c1ccc(C(F)(F)F)cc1[C@@H]1CC[C@H]2[C@@H](c3cc(C(F)(F)F)cc(C(F)(F)F)c3)N(C)C(=O)N12 [Example 4, 4-{5-[2-{(1R,5S,7aS)-1-[3,5-bis(trifluoromethyl)phenyl]-2-methyl-3-oxohexahydro-1H-pyrrolo[1,2-c]imidazol-5-yl}-4-(trifluoromethyl)phenyl]-6-methoxypyridin-3-yl}-3-methylbenzoic acid] the IC50 was 1.5 µM. COc1ncc(-c2c(C)cc(C(=O)O)cc2C)cc1-c1ccc(C(F)(F)F)cc1[C@@H]1CC[C@H]2[C@@H](c3cc(C(F)(F)F)cc(C(F)(F)F)c3)NC(=O)N12 [Example 5, 4-{5-[2-{(1R,5S,7aS)-1-[3,5-bis(trifluoromethyl)phenyl]-3-oxohexahydro-1H-pyrrolo[1,2-c]imidazol-5-yl}-4-(trifluoromethyl)phenyl]-6-methoxypyridin-3-yl}-3,5-dimethylbenzoic acid] showed an IC50 of 0.392 µM. COc1cc(F)c(C(C)C)cc1-c1ccc(C(F)(F)F)cc1[C@@H]1CC[C@H]2[C@@H](c3cc(F)cc(C(F)(F)F)c3)NC(=O)N12 [Example 6] showed an IC50 of 1.07 µM. COc1ccc(CCC(=O)O)cc1-c1ccc(C(F)(F)F)cc1[C@@H]1CC[C@H]2[C@@H](c3cc(C(F)(F)F)cc(C(F)(F)F)c3)NC(=O)N12 [Example 7, 3-[2′-{(1R,5S,7aS)-1-[3,5-bis(trifluoromethyl)phenyl]-3-oxohexahydro-1H-pyrrolo[1,2-c]imidazol-5-yl}-6-methoxy-4′-(trifluoromethyl)biphenyl-3-yl]propanoic acid] showed an IC50 of 1.2 µM. Compound COc1ccc(-c2ccc(C(=O)O)cc2C)cc1-c1ccc(C(F)(F)F)cc1[C@@H]1CC[C@H]2[C@@H](c3cc(C(F)(F)F)cc(C(F)(F)F)c3)NC(=O)N12 [Example 9] has an IC50 of 1.36 µM. Work on COc1ccc(CCC(=O)O)cc1-c1ccc(C(F)(F)F)cc1[C@@H]1CC[C@H]2[C@@H](c3cc(C(F)(F)F)cc(C(F)(F)F)c3)N(C)C(=O)N12 [Example 10, 3-[2′-{(1R,5S,7aS)-1-[3,5-bis(trifluoromethyl)phenyl]-2-methyl-3-oxohexahydro-1H-pyrrolo[1,2-c]imidazol-5-yl}-6-methoxy-4′-(trifluoromethyl)biphenyl-3-yl]propanoic acid] yielded an IC50 of 2.95 µM. COc1ccc(-c2ccc(C(=O)O)cc2C)cc1-c1ccc(C(F)(F)F)cc1[C@@H]1CC[C@H]2[C@@H](c3cc(C(F)(F)F)cc(C(F)(F)F)c3)N(C)C(=O)N12 [Example 12, 2″-{(1R,5S,7aS)-1-[3,5-bis(trifluoromethyl)phenyl]-2-methyl-3-oxohexahydro-1H-pyrrolo[1,2-c]imidazol-5-yl}-4′-methoxy-2-methyl-4″-(trifluoromethyl)-l,1′:3′,l″-terphenyl-4-carboxylic acid] was tested, and the IC50 was 1.42 µM. For COc1ccc(-c2cccnc2C)cc1-c1ccc(C(F)(F)F)cc1[C@@H]1CC[C@H]2[C@@H](c3cc(C(F)(F)F)cc(C(F)(F)F)c3)NC(=O)N12 [Example 13, (1R,5S,7aS)-1-[3,5-bis(trifluoromethyl)phenyl]-5-[2′-methoxy-5′-(2-methylpyridin-3-yl)-4-(trifluoromethyl)biphenyl-2-yl]hexahydro-3H-pyrrolo[1,2-c]imidazol-3-one], the IC50 was 0.795 µM. COc1ccc(-c2ccc(C(=O)O)nc2C)cc1-c1ccc(C(F)(F)F)cc1[C@@H]1CC[C@H]2[C@@H](c3cc(C(F)(F)F)cc(C(F)(F)F)c3)NC(=O)N12 [Example 14, 5-[2′-{(1R,5S,7aS)-1-[3,5-bis(trifluoromethyl)phenyl]-3-oxohexahydro-1H-pyrrolo[1,2-c]imidazol-5-yl}-methoxy-4′-(trifluoromethyl)biphenyl-3-yl]-6-methylpyridine-2-carboxylic acid] gave an IC50 of 1.93 µM. Work on COc1ccc([C@H]2[C@H](C)C(=O)N[C@@H]2C)cc1-c1ccc(C(F)(F)F)cc1[C@@H]1CC[C@H]2[C@@H](c3cc(C(F)(F)F)cc(C(F)(F)F)c3)NC(=O)N12 [Example 15, (1R,5S,7aS)-1-[3,5-bis(trifluoromethyl)phenyl]-5-{5′-[(2R,3R,4S)-2,4-dimethyl-5-oxopyrrolidin-3-yl]-2′-methoxy-4-(trifluoromethyl)biphenyl-2-yl}hexahydro-3H-pyrrolo[1,2-c]imidazol-3-one] yielded an IC50 of 1.74 µM. Compound COc1ccc(-c2ccc(C(=O)O)cc2C)cc1-c1ccc(C(F)(F)F)cc1[C@@H]1CC[C@H]2[C@@H](c3cc(F)cc(C(F)(F)F)c3)NC(=O)N12 [Example 16, 2″-{(1R,5S,7aS)-1-[3-fluoro-5-(trifluoromethyl)phenyl]-3-oxohexahydro-1H-pyrrolo[1,2-c]imidazol-5-yl}-4′-methoxy-2-methyl-4″-(trifluoromethyl)-1,1′:3′,1″-terphenyl-4-carboxylic acid] has an IC50 of 1.51 µM. Compound COc1ccc(CCC(=O)O)cc1-c1ccc(C(F)(F)F)cc1[C@@H]1CC[C@H]2[C@@H](c3cc(F)cc(C(F)(F)F)c3)NC(=O)N12 [Example 17, 3-[2′-{(1R,5S,7aS)-1-[3-fluoro-5-(trifluoromethyl)phenyl]-3-oxohexahydro-1H-pyrrolo[1,2-c]imidazol-5-yl}-6-methoxy-4′-(trifluoromethyl)biphenyl-3-yl]propanoic acid] has an IC50 of 3.16 µM. COc1ncc(-c2ccc(C(=O)O)cc2C)cc1-c1ccc(C(F)(F)F)cc1[C@@H]1CC[C@H]2[C@@H](c3ccnc(C(F)(F)F)c3)NC(=O)N12 [Example 18, 4-{6-methoxy-5-[2-{(1R,5S,7aS)-3-oxo-1-[2-(trifluoromethyl)pyridin-4-yl]hexahydro-1H-pyrrolo[1,2-c]imidazol-5-yl}-4-(trifluoromethyl)phenyl]pyridin-3-yl}-3-methylbenzoic acid] was tested, and the IC50 was 5.04 µM.
